From patent publication US8623869B2, “Compounds useful as inhibitors of ATR kinase” (Vertex Pharmaceuticals Incorporated, priority 2010, dated 2014)

molecular target: T1, full-length ATR (Homo sapiens, UniProt Q13535); assay: ATR Inhibition Assay (radioactive-phosphate incorporation); format: biochemical; conditions: Ki(app); 5 nM full-length ATR, 10 μM ATP, 800 μM target peptide, 25° C.
T1 construct: Assays were carried out at 25° C. in the presence of 5 nM full-length ATR
Experimental: Compounds were screened for their ability to inhibit ATR kinase using a radioactive-phosphate incorporation assay. Assays were carried out in a mixture of 50 mM Tris/HCl (pH 7.5), 10 mM MgCl2 and 1 mM DTT. Final substrate concentrations were 10 μM [γ-33P]ATP (3mCi 33P ATP/mmol ATP, Perkin Elmer) and 800 μM target peptide (ASELPASQPQPFSAKKK).
Assays were carried out at 25° C. in the presence of 5 nM full-length ATR. An assay stock buffer solution was prepared containing all of the reagents listed above, with the exception of ATP and the test compound of interest. 13.5 μL of the stock solution was placed in a 96 well plate followed by addition of 2 μL of DMSO stock containing serial dilutions of the test compound (typically starting from a final concentration of 15 μM with 3-fold serial dilutions) in duplicate (final DMSO concentration 7%). The plate was pre-incubated for 10 minutes at 25° C. and the reaction initiated by addition of 15 μL [γ-33P]ATP (final concentration 10 μM).
The reaction was stopped after […] by the addition of 30 μL 0.1M phosphoric acid containing 2 mM ATP. A multiscreen phosphocellulose filter 96-well plate (Millipore, Cat no. MAPHN0B50) was pretreated with 100 μL 0.2M phosphoric acid prior to the addition of 45 μL of the stopped assay mixture. The plate was washed with 5×200 μL 0.2M phosphoric acid. After drying, 100 μL Optiphase ‘SuperMix’ liquid scintillation cocktail (Perkin Elmer) was added to the well prior to scintillation counting (1450 Microbeta Liquid Scintillation Counter, Wallac).
After removing mean background values for all of the data points, Ki(app) data were calculated from non-linear regression analysis of the initial rate data using the Prism software package (GraphPad Prism version 3.0cx for Macintosh, GraphPad Software, San Diego Calif., USA).

T1 sequence (Q13535 whole entry): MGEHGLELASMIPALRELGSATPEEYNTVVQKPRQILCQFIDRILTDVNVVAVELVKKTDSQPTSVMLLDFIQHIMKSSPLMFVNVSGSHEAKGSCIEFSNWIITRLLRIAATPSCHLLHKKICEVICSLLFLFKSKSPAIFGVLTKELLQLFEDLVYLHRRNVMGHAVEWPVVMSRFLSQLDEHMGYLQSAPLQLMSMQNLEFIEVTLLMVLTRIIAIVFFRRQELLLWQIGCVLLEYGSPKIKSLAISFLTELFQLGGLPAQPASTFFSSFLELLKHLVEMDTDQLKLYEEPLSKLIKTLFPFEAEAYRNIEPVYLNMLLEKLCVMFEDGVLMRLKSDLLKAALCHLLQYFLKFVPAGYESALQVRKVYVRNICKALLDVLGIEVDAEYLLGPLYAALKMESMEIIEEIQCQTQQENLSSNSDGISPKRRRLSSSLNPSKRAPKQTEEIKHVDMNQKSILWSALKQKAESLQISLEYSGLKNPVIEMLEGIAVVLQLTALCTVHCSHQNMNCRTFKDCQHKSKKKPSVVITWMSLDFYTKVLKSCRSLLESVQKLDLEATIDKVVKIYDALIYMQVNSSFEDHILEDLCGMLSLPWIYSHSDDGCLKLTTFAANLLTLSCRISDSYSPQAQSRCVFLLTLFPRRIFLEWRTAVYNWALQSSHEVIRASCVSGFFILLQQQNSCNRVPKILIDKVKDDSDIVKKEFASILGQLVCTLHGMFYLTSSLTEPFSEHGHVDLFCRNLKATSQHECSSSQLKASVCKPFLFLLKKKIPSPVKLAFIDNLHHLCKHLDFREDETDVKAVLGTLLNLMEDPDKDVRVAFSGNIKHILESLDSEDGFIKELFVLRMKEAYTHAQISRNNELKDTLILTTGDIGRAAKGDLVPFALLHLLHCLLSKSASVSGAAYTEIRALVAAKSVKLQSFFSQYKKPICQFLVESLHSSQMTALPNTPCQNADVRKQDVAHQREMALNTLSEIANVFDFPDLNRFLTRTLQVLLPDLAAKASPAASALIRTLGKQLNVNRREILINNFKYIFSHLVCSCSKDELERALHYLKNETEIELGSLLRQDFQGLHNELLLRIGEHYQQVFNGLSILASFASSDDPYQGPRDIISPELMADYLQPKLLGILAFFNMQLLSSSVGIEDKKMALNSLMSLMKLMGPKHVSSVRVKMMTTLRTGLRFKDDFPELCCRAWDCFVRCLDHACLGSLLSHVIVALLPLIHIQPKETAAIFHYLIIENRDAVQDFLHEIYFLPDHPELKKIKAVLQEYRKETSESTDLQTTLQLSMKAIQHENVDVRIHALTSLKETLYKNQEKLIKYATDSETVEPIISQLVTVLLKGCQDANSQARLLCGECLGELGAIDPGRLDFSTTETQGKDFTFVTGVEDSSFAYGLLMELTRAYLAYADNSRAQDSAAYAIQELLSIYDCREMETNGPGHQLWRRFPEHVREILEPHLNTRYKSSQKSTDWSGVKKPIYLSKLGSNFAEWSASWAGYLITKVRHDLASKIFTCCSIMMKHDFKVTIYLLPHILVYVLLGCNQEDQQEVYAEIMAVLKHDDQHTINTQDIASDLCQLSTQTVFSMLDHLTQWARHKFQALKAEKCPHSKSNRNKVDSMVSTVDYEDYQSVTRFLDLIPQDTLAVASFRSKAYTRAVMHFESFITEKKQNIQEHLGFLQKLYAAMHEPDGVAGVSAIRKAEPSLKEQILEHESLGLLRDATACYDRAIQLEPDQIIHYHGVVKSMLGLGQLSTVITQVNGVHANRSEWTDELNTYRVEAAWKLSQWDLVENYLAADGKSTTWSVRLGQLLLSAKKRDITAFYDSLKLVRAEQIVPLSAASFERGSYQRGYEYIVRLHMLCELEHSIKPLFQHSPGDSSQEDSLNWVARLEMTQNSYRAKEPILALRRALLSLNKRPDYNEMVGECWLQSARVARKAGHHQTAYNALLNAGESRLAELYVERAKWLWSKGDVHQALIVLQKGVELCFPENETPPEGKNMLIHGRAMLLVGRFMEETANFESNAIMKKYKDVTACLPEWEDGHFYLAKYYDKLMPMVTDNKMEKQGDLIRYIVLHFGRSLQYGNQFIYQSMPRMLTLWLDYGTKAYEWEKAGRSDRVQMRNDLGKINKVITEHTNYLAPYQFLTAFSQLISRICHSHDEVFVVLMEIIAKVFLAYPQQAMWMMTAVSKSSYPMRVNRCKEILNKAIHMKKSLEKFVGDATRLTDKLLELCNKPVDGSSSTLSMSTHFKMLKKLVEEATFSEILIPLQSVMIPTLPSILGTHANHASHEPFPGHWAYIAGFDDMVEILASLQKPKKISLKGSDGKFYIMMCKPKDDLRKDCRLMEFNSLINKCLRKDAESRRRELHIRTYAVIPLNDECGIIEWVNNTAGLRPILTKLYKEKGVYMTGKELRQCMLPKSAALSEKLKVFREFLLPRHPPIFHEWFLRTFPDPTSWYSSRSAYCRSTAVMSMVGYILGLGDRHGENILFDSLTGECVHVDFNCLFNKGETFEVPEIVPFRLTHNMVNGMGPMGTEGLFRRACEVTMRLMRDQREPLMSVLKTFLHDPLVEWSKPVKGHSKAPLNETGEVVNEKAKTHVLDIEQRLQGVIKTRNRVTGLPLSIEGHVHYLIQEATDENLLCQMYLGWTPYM

Ki [nM] | Structure (SMILES)
≤ 10 | CC(Oc1cc(-c2c[nH]c3ncc(-c4ccc(S(=O)(=O)C(C)C)cc4)nc23)sc1C(=O)O)c1ccccc1Cl (stereo not drawn) [Compound I-69, 3-[1-(2-chlorophenyl)ethoxy]-5-[2-(4-isopropylsulfonylphenyl)-5H-pyrrolo[2,3-b]pyrazin-7-yl]thiophene-2-carboxylic acid]
> 50 | CC(C)S(=O)(=O)c1ccc(-c2cnc3[nH]cc(-c4cccnc4NC(=O)C(C)(C)C)c3n2)cc1 [Compound I-60, N-[3-[2-(4-isopropylsulfonylphenyl)-5H-pyrrolo[2,3-b]pyrazin-7-yl]-2-pyridyl]2,2-dimethyl-propanamide]
10 to 50 | CC(C)S(=O)(=O)c1ccc(-c2cnc3[nH]cc(-c4ccc(N(C)C)nc4)c3n2)cc1 [Compound I-37, 5-[2-(4-isopropylsulfonylphenyl)-5H-pyrrolo[2,3-b]pyrazin-7-yl]-N,N-dimethyl-pyridin-2-amine]
> 50 | CC(C)S(=O)(=O)c1ccc(-c2cnc3[nH]cc(-c4cccc5cnccc45)c3n2)cc1 [Compound I-41, 5-[2-(4-isopropylsulfonylphenyl)-5H-pyrrolo[2,3-b]pyrazin-7-yl]isoquinoline]
> 50 | CC(C)S(=O)(=O)c1ccc(-c2cnc3[nH]cc(-c4cc5c(Cl)cccc5n4C(=O)OC(C)(C)C)c3n2)cc1 [Compound I-58, tert-butyl 4-chloro-2-[2-(4-isopropylsulfonylphenyl)-5H-pyrrolo[2,3-b]pyrazin-7-yl]indole-1-carboxylate]
10 to 50 | Cc1ccc(-c2c[nH]c3ncc(-c4ccc(S(=O)(=O)C(C)C)cc4)nc23)cn1 [Compound I-51, 2-(4-isopropylsulfonylphenyl)-7-(6-methyl-3-pyridyl)-5H-pyrrolo[2,3-b]pyrazine]
> 50 | CC(C)S(=O)(=O)c1ccc(-c2cnc3[nH]cc(-c4ccnc5ccccc45)c3n2)cc1 [Compound I-43, 4-[2-(4-isopropylsulfonylphenyl)-5H-pyrrolo[2,3-b]pyrazin-7-yl]quinoline]
> 50 | Cc1n[nH]c(C)c1-c1c[nH]c2ncc(-c3ccc(S(=O)(=O)C(C)C)cc3)nc12 [Compound I-52, 7-(3,5-dimethyl-1H-pyrazol-4-yl)-2-(4-isopropylsulfonylphenyl)-5H-pyrrolo[2,3-b]pyrazine]
≤ 10 | CC(C)S(=O)(=O)c1ccc(-c2cnc3[nH]cc(-c4ccc5ncccc5c4)c3n2)cc1 [Compound I-40, 6-[2-(4-isopropylsulfonylphenyl)-5H-pyrrolo[2,3-b]pyrazin-7-yl]quinoline]
> 50 | CC(C)S(=O)(=O)c1ccc(-c2cnc3[nH]cc(-c4csc5ccccc45)c3n2)cc1 [Compound I-44, 7-(benzothiophen-3-yl)-2-(4-isopropylsulfonylphenyl)-5H-pyrrolo[2,3-b]pyrazine]
≤ 10 | CC(C)S(=O)(=O)c1ccc(-c2cnc3[nH]cc(-c4cncc(C(C)(C)O)c4)c3n2)cc1 [Compound I-66, 2-[5-[2-(4-isopropylsulfonylphenyl)-5H-pyrrolo[2,3-b]pyrazin-7-yl]-3-pyridyl]propan-2-ol]
10 to 50 | CC(C)S(=O)(=O)c1ccc(-c2cnc3[nH]cc(-c4cncc(S(C)(=O)=O)c4)c3n2)cc1 [Compound I-48, 2-(4-isopropylsulfonylphenyl)-7-(5-methylsulfonyl-3-pyridyl)-5H-pyrrolo[2,3-b]pyrazine]
> 50 | CC(C)S(=O)(=O)c1ccc(-c2cnc3[nH]cc(-c4cc5cc(F)ccc5n4C(=O)OC(C)(C)C)c3n2)cc1 [Compound I-56, tert-butyl 5-fluoro-2-[2-(4-isopropylsulfonylphenyl)-5H-pyrrolo[2,3-b]pyrazin-7-yl]indole-1-carboxylate]
> 50 | COc1cc(-c2c[nH]c3ncc(-c4ccc(S(=O)(=O)C(C)C)cc4)nc23)c(F)cn1 [Compound I-39, 7-(5-fluoro-2-methoxy-4-pyridyl)-2-(4-isopropylsulfonylphenyl)-5H-pyrrolo[2,3-b]pyrazine]
≤ 10 | CC(C)S(=O)(=O)c1ccc(-c2cnc3[nH]cc(-c4ccc(N)nc4)c3n2)cc1 [Compound I-53, 5-[2-(4-isopropylsulfonylphenyl)-5H-pyrrolo[2,3-b]pyrazin-7-yl]pyridin-2-amine]

More lines, now with the values behind:

Structure (SMILES) | Ki [nM]
CC(C)S(=O)(=O)c1ccc(-c2cnc3[nH]cc(-c4cccc5[nH]ccc45)c3n2)cc1 [Compound I-12, 7-(1H-indol-4-yl)-2-(4-isopropylsulfonylphenyl)-5H-pyrrolo[2,3-b]pyrazine] | > 50
COc1ccc(-c2c[nH]c3ncc(-c4ccc(S(=O)(=O)C(C)C)cc4)nc23)cn1 [Compound I-31, 2-(4-isopropylsulfonylphenyl)-7-(6-methoxy-3-pyridyl)-5H-pyrrolo[2,3-b]pyrazine] | > 50
CC(C)S(=O)(=O)c1ccc(-c2cnc3[nH]cc(C#Cc4ccccc4)c3n2)cc1 [Compound I-2, 2-(4-Isopropylsulfonylphenyl)-7-(2-phenylethynyl)-5H-pyrrolo[2,3-b]pyrazine] | 10 to 50
CC(C)S(=O)(=O)c1ccc(-c2cnc3[nH]cc(-c4ccc(F)nc4)c3n2)cc1 [Compound I-23, 7-(6-fluoro-3-pyridyl)-2-(4-isopropylsulfonylphenyl)-5H-pyrrolo[2,3-b]pyrazine] | 10 to 50
COc1ccccc1-c1c[nH]c2ncc(-c3ccc(S(=O)(=O)C(C)C)cc3)nc12 [Compound I-15, 2-(4-isopropylsulfonylphenyl)-7-(2-methoxyphenyl)-5H-pyrrolo[2,3-b]pyrazine] | > 50
COc1ncc(-c2c[nH]c3ncc(-c4ccc(S(=O)(=O)C(C)C)cc4)nc23)cn1 [Compound I-34, 2-(4-isopropylsulfonylphenyl)-7-(2-methoxypyrimidin-5-yl)-5H-pyrrolo[2,3-b]pyrazine] | 10 to 50
CC(C)S(=O)(=O)c1ccc(-c2cnc3[nH]cc(-c4scc5c4OCCO5)c3n2)cc1 [Compound I-20, 7-(2,3-dihydrothieno[3,4-b][1,4]dioxin-5-yl)-2-(4-isopropylsulfonylphenyl)-5H-pyrrolo[2,3-b]pyrazine] | 10 to 50
CC(C)S(=O)(=O)c1ccc(-c2cnc3[nH]cc(-c4cnc(N)cn4)c3n2)cc1 [Compound I-9, 5-[2-(4-isopropylsulfonylphenyl)-5H-pyrrolo[2,3-b]pyrazin-7-yl]pyrazin-2-amine] | > 50
CC(C)S(=O)(=O)c1ccc(-c2cnc3[nH]cc(-c4ccccc4C(=O)N(C)C)c3n2)cc1 [Compound I-19, 2-[2-(4-isopropylsulfonylphenyl)-5H-pyrrolo[2,3-b]pyrazin-7-yl]-N,N-dimethyl-benzamide] | > 50
CC(C)S(=O)(=O)c1ccc(-c2cnc3[nH]cc(-c4cc(-c5ccccc5)no4)c3n2)cc1 [Compound I-3, 5-[2-(4-Isopropylsulfonylphenyl)-5H-pyrrolo[2,3-b]pyrazin-7-yl]-3-phenyl-isoxazole] | ≤ 10
CC(C)S(=O)(=O)c1ccc(-c2cnc3[nH]cc(-c4ccccc4C(N)=O)c3n2)cc1 [Compound I-18, 2-[2-(4-isopropylsulfonylphenyl)-5H-pyrrolo[2,3-b]pyrazin-7-yl]benzamide] | > 50
COc1cc(-c2c[nH]c3ncc(-c4ccc(S(=O)(=O)C(C)C)cc4)nc23)ccn1 [Compound I-33, 2-(4-isopropylsulfonylphenyl)-7-(2-methoxy-4-pyridyl)-5H-pyrrolo[2,3-b]pyrazine] | ≤ 10
Cc1ccsc1-c1c[nH]c2ncc(-c3ccc(S(=O)(=O)C(C)C)cc3)nc12 [Compound I-28, 2-(4-isopropylsulfonylphenyl)-7-(3-methyl-2-thienyl)-5H-pyrrolo[2,3-b]pyrazine] | > 50
CC(C)S(=O)(=O)c1ccc(-c2cnc3[nH]cc(-c4ccc5[nH]ccc5c4)c3n2)cc1 [Compound I-35, 7-(1H-indol-5-yl)-2-(4-isopropylsulfonylphenyl)-5H-pyrrolo[2,3-b]pyrazine] | 10 to 50
CC(C)S(=O)(=O)c1ccc(-c2cnc3[nH]cc(-c4ccc(OCCCN(C)C)nc4)c3n2)cc1 [Compound I-11, 3[[5-[2-(4-isopropylsulfonylphenyl)-5H-pyrrolo[2,3-b]pyrazin-7-yl]-2-pyridyl]oxy]-N,N-dimethyl-propan-1-amine] | > 50
CC(C)S(=O)(=O)c1ccc(-c2cnc3[nH]cc(-c4ccccc4O)c3n2)cc1 [Compound I-14, 2-[2-(4-isopropylsulfonylphenyl)-5H-pyrrolo[2,3-b]pyrazin-7-yl]phenol] | 10 to 50
Cc1cscc1-c1c[nH]c2ncc(-c3ccc(S(=O)(=O)C(C)C)cc3)nc12 [Compound I-27, 2-(4-isopropylsulfonylphenyl)-7-(4-methyl-3-thienyl)-5H-pyrrolo[2,3-b]pyrazine] | > 50
CC(C)S(=O)(=O)c1ccc(-c2cnc3[nH]cc(-c4cccnc4F)c3n2)cc1 [Compound I-24, 7-(2-fluoro-3-pyridyl)-2-(4-isopropylsulfonylphenyl)-5H-pyrrolo[2,3-b]pyrazine] | ≤ 10
